Results taken from patent US20240239861A1, “GLUCAGON-RECEPTOR SELECTIVE POLYPEPTIDES AND METHODS OF USE THEREOF” (i2O Therapeutics, Inc., priority 2016, published 2024).
*1 amine or outer side, *2 acyl side, *3 side chain or, on linkers, in order; H or OH if unused. Where a SMILES comes first, the peptide text is derived from it. Side-chain parts run from the residue outwards. [ ]: non-standard residue; d: D form. The star is where a group is joined. C18 diacid = O=C(O)CCCCCCCCCCCCCCCCC(=O)*; γGlu = O=C(O)[C@H](CCC(=O)[*:2])N[*:1]; Palmitoyl = CCCCCCCCCCCCCCCC(=O)*; AEEA = NCCOCCOCC(=O)O; Aib = CC(C)(N)C(=O)O

How the values were obtained:
human GCGR = human GCGR (Homo sapiens, UniProt P47871); test: Peptide-receptor mediated cAMP accumulation (LANCE Ultra cAMP) in CHO-K1 cells transfected with human GCGR; assay type: cell-based; conditions: read-out: GluR pEC50 (converted)
Chain of human GCGR (P47871 26-477): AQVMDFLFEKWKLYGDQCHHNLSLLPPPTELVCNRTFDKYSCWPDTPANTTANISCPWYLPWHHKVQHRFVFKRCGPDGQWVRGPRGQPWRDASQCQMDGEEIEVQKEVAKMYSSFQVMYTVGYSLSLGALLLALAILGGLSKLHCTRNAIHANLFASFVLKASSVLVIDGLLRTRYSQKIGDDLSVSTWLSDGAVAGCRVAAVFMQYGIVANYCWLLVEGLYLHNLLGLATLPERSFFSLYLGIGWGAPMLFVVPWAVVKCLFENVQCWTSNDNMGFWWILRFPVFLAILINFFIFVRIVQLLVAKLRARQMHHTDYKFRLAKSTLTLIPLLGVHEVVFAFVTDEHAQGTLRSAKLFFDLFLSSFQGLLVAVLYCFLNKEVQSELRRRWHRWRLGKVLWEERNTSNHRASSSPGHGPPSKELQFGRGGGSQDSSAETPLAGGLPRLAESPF

human GLP-1R = human GLP-1R (Homo sapiens, UniProt P43220); test: Peptide-receptor mediated cAMP accumulation (LANCE Ultra cAMP) in CHO-K1 cells transfected with human GLP-1R; assay type: cell-based; conditions: Table 7; GLP-1R; read-out: GLP-1R pEC50 (converted)
Chain of human GLP-1R (P43220 24-463): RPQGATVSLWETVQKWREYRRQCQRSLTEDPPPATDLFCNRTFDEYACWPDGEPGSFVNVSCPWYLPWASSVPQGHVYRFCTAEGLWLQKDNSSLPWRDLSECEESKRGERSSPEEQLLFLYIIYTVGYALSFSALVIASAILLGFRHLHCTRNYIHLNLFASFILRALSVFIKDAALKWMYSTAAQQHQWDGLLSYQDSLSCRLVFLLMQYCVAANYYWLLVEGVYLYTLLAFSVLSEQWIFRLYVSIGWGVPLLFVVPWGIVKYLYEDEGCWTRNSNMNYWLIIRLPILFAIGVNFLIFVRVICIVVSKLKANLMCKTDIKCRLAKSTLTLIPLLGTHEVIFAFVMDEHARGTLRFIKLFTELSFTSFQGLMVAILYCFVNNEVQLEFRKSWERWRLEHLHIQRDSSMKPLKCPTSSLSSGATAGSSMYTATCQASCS

SMILES | EC50 (human GCGR) | EC50 (human GLP-1R)
CC(C)C[C@H](NC(=O)[C@H](Cc1ccc(O)cc1)NC(=O)[C@H](CCCCN)NC(=O)[C@H](CO)NC(=O)[C@H](CCCCNC(=O)COCCOCCNC(=O)COCCOCCNC(=O)CC[C@H](NC(=O)CCCCCCCCCCCCCCCCC(=O)O)C(=O)O)NC(=O)[C@H](CC(=O)O)NC(=O)[C@H](CO)NC(=O)[C@@H](NC(=O)[C@H](Cc1ccccc1)NC(=O)[C@@H](NC(=O)CNC(=O)[C@H](Cc1c[nH]cn1)NC(=O)[C@H](CO)NC(=O)[C@@H](N)Cc1ccc(O)cc1)[C@@H](C)O)[C@@H](C)O)C(=O)N[C@@H](CC(=O)O)C(=O)NC(C)(C)C(=O)N[C@@H](CCCCN)C(=O)N[C@@H](CO)C(=O)N[C@@H](C)C(=O)N[C@@H](CCC(N)=O)C(=O)N[C@@H](CCC(=O)O)C(=O)N[C@@H](Cc1ccccc1)C(=O)N[C@H](C(=O)NC(C)(C)C(=O)N[C@@H](Cc1c[nH]c2ccccc12)C(=O)N[C@@H](CC(C)C)C(=O)N[C@@H](CCC(=O)O)C(=O)N[C@@H](CC(=O)O)C(=O)N[C@@H](CCC(=O)O)C(=O)N1CCC[C@H]1C(=O)N[C@@H](CO)C(=O)N[C@@H](CO)C(=O)NCC(=O)N[C@@H](C)C(=O)N1CCC[C@H]1C(=O)N1CCC[C@H]1C(=O)N1CCC[C@H]1C(=O)N[C@@H](CO)C(=O)O)C(C)C [Compound B16] (H-YSHGTFTSDK([AEEA-AEEA-γGlu-C18 diacid])SKYLD[Aib]KSAQEFV[Aib]WLEDEPSSGAPPPS-OH) | 3.16 nM | 5.01 nM
CCCCCCCCCCCCCCCC(=O)N[C@@H](CCC(=O)NCCCC[C@H](NC(=O)[C@H](CO)NC(=O)[C@H](CO)NC(=O)[C@@H]1CCCN1C(=O)[C@H](CCC(=O)O)NC(=O)[C@H](CC(=O)O)NC(=O)[C@H](CCC(=O)O)NC(=O)[C@H](CC(C)C)NC(=O)[C@H](Cc1c[nH]c2ccccc12)NC(=O)C(C)(C)NC(=O)[C@@H](NC(=O)[C@H](Cc1ccccc1)NC(=O)[C@H](CCC(=O)O)NC(=O)[C@H](CCC(N)=O)NC(=O)[C@H](C)NC(=O)[C@H](CCCNC(=N)N)NC(=O)[C@H](CCCCN)NC(=O)C(C)(C)NC(=O)[C@H](CC(=O)O)NC(=O)[C@H](CC(C)C)NC(=O)[C@H](Cc1ccc(O)cc1)NC(=O)[C@H](CCCCN)NC(=O)[C@H](CO)NC(=O)[C@H](Cc1ccc(O)cc1)NC(=O)[C@H](CC(=O)O)NC(=O)[C@H](CO)NC(=O)[C@@H](NC(=O)[C@H](Cc1ccccc1)NC(=O)[C@@H](NC(=O)CNC(=O)[C@H](CCC(N)=O)NC(=O)[C@H](CO)NC(=O)[C@@H](N)Cc1c[nH]c2ccccc12)[C@@H](C)O)[C@@H](C)O)C(C)C)C(=O)N[C@@H](C)C(=O)N1CCC[C@H]1C(=O)N1CCC[C@H]1C(=O)N1CCC[C@H]1C(=O)N[C@@H](CO)C(=O)O)C(=O)O [Compound B17] (H-WSQGTFTSDYSKYLD[Aib]KRAQEFV[Aib]WLEDEPSSK([γGlu-Palmitoyl])APPPS-OH) | 0.0316 nM | > 1000 nM
CCCCCCCCCCCCCCCC(=O)N[C@@H](CCC(=O)NCCCC[C@H](NC(=O)[C@@H](NC(=O)[C@H](Cc1ccccc1)NC(=O)[C@H](CCC(=O)O)NC(=O)[C@H](CCC(N)=O)NC(=O)[C@H](C)NC(=O)[C@H](CCCNC(=N)N)NC(=O)[C@H](CCCCN)NC(=O)C(C)(C)NC(=O)[C@H](CC(=O)O)NC(=O)[C@H](CC(C)C)NC(=O)[C@H](Cc1ccc(O)cc1)NC(=O)[C@H](CCCCN)NC(=O)[C@H](CO)NC(=O)[C@H](Cc1ccc(O)cc1)NC(=O)[C@H](CC(=O)O)NC(=O)[C@H](CO)NC(=O)[C@@H](NC(=O)[C@H](Cc1ccccc1)NC(=O)[C@@H](NC(=O)CNC(=O)[C@H](CCC(N)=O)NC(=O)[C@H](CO)NC(=O)[C@@H](N)Cc1c[nH]c2ccccc12)[C@@H](C)O)[C@@H](C)O)C(C)C)C(=O)N[C@@H](Cc1c[nH]c2ccccc12)C(=O)N[C@@H](CC(C)C)C(=O)N[C@@H](CCC(=O)O)C(=O)N[C@@H](CC(=O)O)C(=O)N[C@@H](CCC(=O)O)C(=O)N1CCC[C@H]1C(=O)N[C@@H](CO)C(=O)N[C@@H](CO)C(=O)NCC(=O)N[C@@H](C)C(=O)N1CCC[C@H]1C(=O)N1CCC[C@H]1C(=O)N1CCC[C@H]1C(=O)N[C@@H](CO)C(=O)O)C(=O)O [Compound B18] (H-WSQGTFTSDYSKYLD[Aib]KRAQEFVK([γGlu-Palmitoyl])WLEDEPSSGAPPPS-OH) | 0.0631 nM | > 1000 nM
CCCCCCCCCCCCCCCC(=O)N[C@@H](CCC(=O)NCCCC[C@H](NC(=O)[C@H](CC(=O)O)NC(=O)[C@H](CC(C)C)NC(=O)[C@H](Cc1ccc(O)cc1)NC(=O)[C@H](CCCCN)NC(=O)[C@H](CO)NC(=O)[C@H](Cc1ccc(O)cc1)NC(=O)[C@H](CC(=O)O)NC(=O)[C@H](CO)NC(=O)[C@@H](NC(=O)[C@H](Cc1ccccc1)NC(=O)[C@@H](NC(=O)CNC(=O)[C@H](CCC(N)=O)NC(=O)[C@H](CO)NC(=O)[C@@H](N)Cc1c[nH]c2ccccc12)[C@@H](C)O)[C@@H](C)O)C(=O)N[C@@H](CCCCN)C(=O)N[C@@H](CCCNC(=N)N)C(=O)N[C@@H](C)C(=O)N[C@@H](CCC(N)=O)C(=O)N[C@@H](CCC(=O)O)C(=O)N[C@@H](Cc1ccccc1)C(=O)N[C@H](C(=O)NC(C)(C)C(=O)N[C@@H](Cc1c[nH]c2ccccc12)C(=O)N[C@@H](CC(C)C)C(=O)N[C@@H](CCC(=O)O)C(=O)N[C@@H](CC(=O)O)C(=O)N[C@@H](CCC(=O)O)C(=O)N1CCC[C@H]1C(=O)N[C@@H](CO)C(=O)N[C@@H](CO)C(=O)NCC(=O)N[C@@H](C)C(=O)N1CCC[C@H]1C(=O)N1CCC[C@H]1C(=O)N1CCC[C@H]1C(=O)N[C@@H](CO)C(=O)O)C(C)C)C(=O)O [Compound B19] (H-WSQGTFTSDYSKYLDK([γGlu-Palmitoyl])KRAQEFV[Aib]WLEDEPSSGAPPPS-OH) | 0.0251 nM | 501 nM
CCCCCCCCCCCCCCCC(=O)N[C@@H](CCC(=O)NCCCC[C@H](NC(=O)[C@H](CC(=O)O)NC(=O)[C@H](CO)NC(=O)[C@@H](NC(=O)[C@H](Cc1ccccc1)NC(=O)[C@@H](NC(=O)CNC(=O)[C@H](CCC(N)=O)NC(=O)[C@H](CO)NC(=O)[C@@H](N)Cc1c[nH]c2ccccc12)[C@@H](C)O)[C@@H](C)O)C(=O)N[C@@H](CO)C(=O)N[C@@H](CCCCN)C(=O)N[C@@H](Cc1ccc(O)cc1)C(=O)N[C@@H](CC(C)C)C(=O)N[C@@H](CC(=O)O)C(=O)NC(C)(C)C(=O)N[C@@H](CCCCN)C(=O)N[C@@H](CCCNC(=N)N)C(=O)N[C@@H](C)C(=O)N[C@@H](CCC(N)=O)C(=O)N[C@@H](CCC(=O)O)C(=O)N[C@@H](Cc1ccccc1)C(=O)N[C@H](C(=O)NC(C)(C)C(=O)N[C@@H](Cc1c[nH]c2ccccc12)C(=O)N[C@@H](CC(C)C)C(=O)N[C@@H](CCC(=O)O)C(=O)N[C@@H](CC(=O)O)C(=O)N[C@@H](CCC(=O)O)C(=O)N1CCC[C@H]1C(=O)N[C@@H](CO)C(=O)N[C@@H](CO)C(=O)NCC(=O)N[C@@H](C)C(=O)N1CCC[C@H]1C(=O)N1CCC[C@H]1C(=O)N1CCC[C@H]1C(=O)N[C@@H](CO)C(=O)O)C(C)C)C(=O)O [Compound B20] (H-WSQGTFTSDK([γGlu-Palmitoyl])SKYLD[Aib]KRAQEFV[Aib]WLEDEPSSGAPPPS-OH) | 0.00794 nM | 316 nM
CC(C)C[C@H](NC(=O)[C@H](Cc1ccc(O)cc1)NC(=O)[C@H](CCCCN)NC(=O)[C@H](CO)NC(=O)[C@H](Cc1ccc(O)cc1)NC(=O)[C@H](CC(=O)O)NC(=O)[C@H](CO)NC(=O)[C@@H](NC(=O)[C@H](Cc1ccccc1)NC(=O)[C@@H](NC(=O)CNC(=O)[C@H](CCC(N)=O)NC(=O)[C@H](CO)NC(=O)[C@@H](N)Cc1c[nH]c2ccccc12)[C@@H](C)O)[C@@H](C)O)C(=O)N[C@@H](CC(=O)O)C(=O)N[C@@H](CCCCNC(=O)COCCOCCNC(=O)COCCOCCNC(=O)CC[C@H](NC(=O)CCCCCCCCCCCCCCCCC(=O)O)C(=O)O)C(=O)N[C@@H](CCCCN)C(=O)N[C@@H](CCCNC(=N)N)C(=O)N[C@@H](C)C(=O)N[C@@H](CCC(N)=O)C(=O)N[C@@H](CCC(=O)O)C(=O)N[C@@H](Cc1ccccc1)C(=O)N[C@H](C(=O)NC(C)(C)C(=O)N[C@@H](Cc1c[nH]c2ccccc12)C(=O)N[C@@H](CC(C)C)C(=O)N[C@@H](CCC(=O)O)C(=O)N[C@@H](CC(=O)O)C(=O)N[C@@H](CCC(=O)O)C(=O)N1CCC[C@H]1C(=O)N[C@@H](CO)C(=O)N[C@@H](CO)C(=O)NCC(=O)N[C@@H](C)C(=O)N1CCC[C@H]1C(=O)N1CCC[C@H]1C(=O)N1CCC[C@H]1C(=O)N[C@@H](CO)C(=O)O)C(C)C [Compound B23] (H-WSQGTFTSDYSKYLDK([AEEA-AEEA-γGlu-C18 diacid])KRAQEFV[Aib]WLEDEPSSGAPPPS-OH) | 0.316 nM | 316 nM
CCCCCCCCCCCCCCCC(=O)N[C@@H](CCC(=O)NCCCC[C@H](NC(=O)[C@H](CO)NC(=O)[C@H](CO)NC(=O)[C@@H]1CCCN1C(=O)[C@H](CCC(=O)O)NC(=O)[C@H](CC(=O)O)NC(=O)[C@H](CCC(=O)O)NC(=O)[C@H](CC(C)C)NC(=O)[C@H](Cc1c[nH]c2ccccc12)NC(=O)[C@@H](NC(=O)[C@@H](NC(=O)[C@H](Cc1ccccc1)NC(=O)[C@H](CCC(=O)O)NC(=O)[C@H](CCC(N)=O)NC(=O)[C@H](C)NC(=O)[C@H](CCCNC(=N)N)NC(=O)[C@H](CCCCN)NC(=O)C(C)(C)NC(=O)[C@H](CC(=O)O)NC(=O)[C@H](CC(C)C)NC(=O)[C@H](Cc1ccc(O)cc1)NC(=O)[C@H](CCCCN)NC(=O)[C@H](CO)NC(=O)[C@H](Cc1ccc(O)cc1)NC(=O)[C@H](CC(=O)O)NC(=O)[C@H](CO)NC(=O)[C@@H](NC(=O)[C@H](Cc1ccccc1)NC(=O)[C@@H](NC(=O)CNC(=O)[C@H](Cc1c[nH]cn1)NC(=O)[C@H](CO)NC(=O)[C@@H](N)Cc1ccc(O)cc1)[C@@H](C)O)[C@@H](C)O)C(C)C)[C@@H](C)CC)C(=O)N[C@@H](C)C(=O)N1CCC[C@H]1C(=O)N1CCC[C@H]1C(=O)N1CCC[C@H]1C(=O)N[C@@H](CO)C(=O)O)C(=O)O [Compound B25] | 0.0316 nM | > 1000 nM
